These results are taken from article PMC13324451 (The Journal of Biological Chemistry, 2026).

The target in the test is T1, RhsF-CT (Chromobacterium violaceum, UniProt Q7NY44).
T1 construct: gene CV_1431; C-terminal toxin domain, residues 1393-1513, 14 kDa; His6-TEV tag, apparently kept
The test is classed as biochemical.

In the case of `NC(=O)c1ccc[n+]([C@@H]2O[C@H](COP(=O)(O)OP(=O)(O)OC[C@H]3O[C@@H](n4cnc5c(N)ncnc54)[C@H](O)[C@@H]3O)[C@@H](O)[C@H]2O)c1` [NAD^+], the “RNA ADP-ribosylation, TBE-urea gel and anti-ADP-ribose immunoblot” value is given as “indicating that RhsF-CT can transfer ADP-ribose from NAD^+ to the RNA”.
